Experimental data published in PubChem BioAssay AID1963433 (Molecular Pharmacology Branch, DTP, NCI, 2024).
Several values for one entry are separate records, joined by “and”; a condition that tells them apart may be missing. Equal entries are not always repeated.

Test system: 772245-204-R-J1-PDC complex spheroid growth
Assay: Anticancer human tumor 772245-204-R-J1-PDC patient-derived rhabdomyosarcoma cell line growth inhibition [Asc]
Details: for viability, T/C: stronger effect = lower value
Experimental: Multicellular complex tumor spheroid response to apoptosis pathway targeting inhibitors Alrizomadlin, Pelcitoclax, and Dasminapant in combination with a variety of drugs and investigational agents in selected tumor cell lines
The MDM2 inhibitor alrizomadlin, the Bcl-2/Bcl-xL inhibitor pelcitoclax, and the IAPs inhibitor dasminapant were evaluated both individually and in combination with standard of care and investigational anticancer small molecules within a complex spheroid model of solid tumors. . Complex spheroids include a stromal component modeled by human endothelial cells (HUVEC) and fibroblasts modeled by human mesenchymal stem cells (MSCs). The concentration ranges selected for each drug and investigational agent were based upon clinically achievable concentrations if the clinical Cmax of the agent was known.
Compounds. The drugs and investigational agents: alrizomadlin (APG-115; NSC831270), pelcitoclax (APG-1252; NSC835773), dasminapant (APG-1387;NSC834197), TAK-243 (NSC785004), copanlisib (NSC809693), olaparib (NSC753686), talazoparib (NSC767125), cobimetinib (NSC 768068), eltanexor (KPT-8602, NSC 794443), abemaciclib (NSC 768073), sotorasib (NSC818433), adagrasib (NSC 831453), MRTX-1133 (NSC 836407), Iadademestat (ORY1001, NSC 806812), and RMC-4630 (NSC839698), were obtained from the NCI Developmental Therapeutics Program Chemical Repository. The FDA-approved anticancer drug set is available from the Developmental Therapeutics Program at https://dtp.cancer.gov/organization/dscb/obtaining/available plates.htm. […] The stock solutions were prepared in dimethyl sulfoxide (DMSO, Sigma-Aldrich, St. Louis, MO, cat. D2650) at 800-fold the tested concentration and stored at -70 degrees C prior to their use. All drugs and investigational agents were tested over a range starting from a high concentration at or near the clinical Cmax and decreasing in half-log increments. If the clinical Cmax for an agent had not been determined, the highest concentration tested was 10 microM.
The patient-derived cancer (PDC) cell lines include five colon adenocarcinomas: 186277-243-T-J2-PDC, 616215-338-R-J1-PDC, 439559-082-T-J2-PDC, 463943-066-T-J2-PDC, and 519858-162-T-J1-PDC; three pancreatic carcinomas: 323965-272-R-J2-PDC, 521955-158-R6-J3-PDC, and 521955-158-R2-J5-PDC; two uterine sarcomas: 327498-152-R-J2-PDC and 993429-296-R-J1-PDC; two rhabdomyosarcomas: 755483-174-R-J1-PDC and 772245-204-R-J1-PDC; two soft tissue sarcomas: 126254-015-R-J1-PDC and 494315-158-R-J1-PDC; two malignant fibrous histiocytomas: 317291-083-R-J1-PDC and 596521-263-R-J1-PDC; two breast carcinomas: 171881-019-R-J1-PDC and 885512-296-R-J2-PDC; and one ovarian carcinoma: 6556581-035-R-J-PDC were obtained from the NCI PDMR, (https://pdmr.cancer.gov). The established cell lines HSSY-2 synovial sarcoma (RRID:CVCL 8719), SYO-1 synovial sarcoma (RRID:CVCL_7146), MPNST malignant peripheral neural sheath tumor were obtained from the Sloan Kettering Institute. The following established cell lines were purchased from the American Type Culture Collection (ATCC, Manassas, VA), Sor the received from the NCI repository:, PANC-1 pancreatic carcinoma (CRL-1469, RRID:CVCL_0480), OVCAR-5 ovarian carcinoma (RRID:CVCL_1628), OVCAR-8 ovarian carcinoma (RRID:CVCL_1629), , MCF-7 breast carcinoma (CRL-12584, RRID:CVCL_0031), MDA-MB-231 breast carcinoma (CRL-12532, RRID:CVCL_0062), NCI-H1876 small cell lung carcinoma (CRL-5902, RRID:CVCL_1503), NCI-H510A small cell lung carcinoma (HTB-184, RRID:CVCL_1565), NCI-H1417 (CRL-5869, RRID:CVCL_1469), and NCI-H196 small cell lung carcinoma (CRL-5823, RRID:CVCL_1509). Dr. Peter Houghton (Greehey Children's Cancer Research Institute, University of Texas Health Science Center, San Antonio, TX) provided Rh-18 rhabdomyosarcoma (RRID:CVCL_1659). Pooled donor human umbilical vein endothelial cells (HUVEC, Lonza, cat. CC-2519) and human mesenchymal stem cells (hMSC, Lonza, cat. PT-2501) were purchased from Lonza (Walkersville, MD).
Cell Culture. […]
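Note: compound exposure lasted seven days.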
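Throughout, for viability, T/C: 100% = DMSO vehicle control viability.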

| IC50 (curve of compound) | Compound | viability, T/C (compound 0.0316 µM) | viability, T/C (compound 0.1 µM) | viability, T/C (compound 0.316 µM) | viability, T/C (compound 1 µM) | viability, T/C (compound 0.00316 µM) | viability, T/C (compound 0.01 µM) | also measured |
| --- | --- | --- | --- | --- | --- | --- | --- | --- |
| > 10000 nM | C#Cc1c(F)ccc2cc(O)cc(-c3ncc4c(N5CC6CCC(C5)N6)nc(OCC56CCCN5CC(F)C6)nc4c3F)c12 (stereo not drawn) | 102% and 92.9% and 100% | 101% and 80.2% and 97.7% | 93% and 86.2% and 90.3% | 106% and 74.9% and 95.2% | – | – | viability, T/C (compound 3.16 µM): 117% and 85.7% and 91.6%; viability, T/C (compound 10 µM): 109% and 66.4% and 75.8% |
| 3970 nM and 4730 nM and 7910 nM | C=C(F)C(=O)N1CCN(c2nc(OCC3CCCN3C)nc3c2CCN(c2cccc4cccc(Cl)c24)C3)CC1CC#N (stereo not drawn) | 92.1% and 101% and 100% | 85.8% and 91.9% and 89.9% | 77.3% and 99.5% and 104% | 87.6% and 98.4% and 95.1% | – | – | viability, T/C (compound 3.16 µM): 62.3% and 76.7% and 101% |
| > 10000 nM | C=CC(=O)N1CCN(c2nc(=O)n(-c3c(C)ccnc3C(C)C)c3nc(-c4c(O)cccc4F)c(F)cc23)C(C)C1 (stereo not drawn) | 91.4% and 88.5% and 102% | 97.5% and 109% and 89.4% | 95.3% and 97% and 98% | 90.4% and 101% and 97.3% | – | – | viability, T/C (compound 3.16 µM): 90.9% and 102% and 111%; viability, T/C (compound 10 µM): 79.6% and 97.6% and 109% |
| > 3000 nM | CCN1C(C(=O)NC23CCC(C(=O)O)(CC2)CC3)C(c2cccc(Cl)c2F)C2(C(=O)Nc3cc(Cl)ccc32)C12CCCCC2 (stereo not drawn) | – | – | – | – | – | – | viability, T/C (compound 0.00949 µM): 107% and 93.5%; IC50 (compound alone, run of 10/11/2022): > 3000 nM |
| > 1000 nM | CCN1CCN(Cc2ccc(Nc3ncc(F)c(-c4cc(F)c5nc(C)n(C(C)C)c5c4)n3)nc2)CC1 | 103% and 87.5% and 96.3% | 99.7% and 97.4% and 104% | 100% and 102% and 97% | 112% and 121% and 102% | 90.5% and 99% and 71.9% | 88.2% and 90.2% and 79.9% | – |
| > 1000 nM | CNC(C)C(=O)NC1CN(S(=O)(=O)c2cccc(S(=O)(=O)N3CCC4CCC(C(=O)NC(c5ccccc5)c5ccccc5)N4C(=O)C(NC(=O)C(C)NC)C3)c2)CCC2CCC(C(=O)NC(c3ccccc3)c3ccccc3)N2C1=O (stereo not drawn) | – | – | – | – | 94.7% and 94.4% and 79% | 93.9% [middle of 14 runs] | IC50 (compound alone, run of 10/24/2022): > 1000 nM; IC50 (compound alone, run of 11/15/2022): > 1000 nM |
| 105 nM and 175 nM and 217 nM | COc1c(OCCCN2CCOCC2)ccc2c3n(c(=NC(=O)c4cnc(N)nc4)nc12)CCN3 | 77% and 76.2% and 90.4% | 46.1% and 55.2% and 63.9% | 41.3% and 42% and 43.8% | 24.4% and 25.4% and 35.3% | 94.7% and 116% and 107% | 91.3% and 98.9% and 106% | – |
| – | Cc1c(S(C)(=O)=O)c(-c2cc(F)cc(N3CCN(c4ccc(NS(=O)(=O)c5ccc(NC(CCN6CCC(C(=O)OCCCP(=O)(O)O)CC6)CSc6ccccc6)c(S(=O)(=O)C(F)(F)F)c5)cc4)CC3)c2)c(-c2ccc(Cl)cc2)n1C(C)C (stereo not drawn) | – | 82.6% [middle of 14 runs] | 67.3% [middle of 14 runs] | 53.8% [middle of 14 runs] | – | – | viability, T/C (compound 10 µM): 45.4% [middle of 14 runs] |
| > 3000 nM | Cc1nc(N2CCC3(CC2)COC(C)C3N)c(CO)nc1Sc1ccnc(N)c1Cl (stereo not drawn) | – | – | – | – | – | – | viability, T/C (compound 0.00949 µM): 98.8% and 123% and 100%; viability, T/C (compound 0.03 µM): 104% and 119% and 120%; viability, T/C (compound 0.0949 µM): 112% and 104% and 89.2%; viability, T/C (compound 0.3 µM): 106% and 90.1% and 102%; viability, T/C (compound 0.949 µM): 99.9% and 85.1% and 77%; viability, T/C (compound 3 µM): 91.5% and 57.5% and 54.3% |
| > 100 nM | Cn1ncnc1[C@H]1c2n[nH]c(=O)c3cc(F)cc(c23)N[C@@H]1c1ccc(F)cc1 | 69.3% and 101% and 82.6% | 72.6% and 93.3% and 85.5% | – | – | 78.3% and 81.4% and 77% | 87.9% and 86.6% and 89.3% | viability, T/C (compound 0.000316 µM): 84.4% and 103% and 99.8%; viability, T/C (compound 0.001 µM): 98% and 95.3% and 90.9% |
| 136 nM and 41.3 nM and > 300 nM | NC(=O)C(=Cn1cnc(-c2cc(C(F)(F)F)cc(C(F)(F)F)c2)n1)c1cncnc1 | – | – | – | – | – | – | viability, T/C (compound 0.000949 µM): 92.1% and 79.1% and 89.4%; viability, T/C (compound 0.003 µM): 94.4% and 79.8% and 83.2%; viability, T/C (compound 0.00949 µM): 89.3% and 86.5% and 108%; viability, T/C (compound 0.03 µM): 69.9% and 55.1% and 101%; viability, T/C (compound 0.0949 µM): 49.8% and 38% and 82.4%; viability, T/C (compound 0.3 µM): 49.2% and 25.1% and 59.7% |
| > 100 nM | NC1CCC(NC2CC2c2ccccc2)CC1 (stereo not drawn) | 84.2% and 98.8% and 103% | 77.9% and 70.9% and 91.6% | – | – | 99% and 87.2% and 107% | 83.2% and 87% and 97.1% | viability, T/C (compound 0.000316 µM): 83.9% and 103% and 99%; viability, T/C (compound 0.001 µM): 81.5% and 83.9% and 100% |
| > 10000 nM | O=C(c1cc(Cc2n[nH]c(=O)c3ccccc23)ccc1F)N1CCN(C(=O)C2CC2)CC1 | 84.8% and 122% and 103% | 109% and 93.1% and 107% | 92.4% and 70.8% and 81.9% | 79.6% and 91.7% and 83.5% | – | – | viability, T/C (compound 3.16 µM): 80.8% and 88.8% and 89.9%; viability, T/C (compound 10 µM): 59.2% and 60% and 83.6% |
| 990 nM and > 1000 nM | O=C(c1ccc(F)c(F)c1Nc1ccc(I)cc1F)N1CC(O)([C@@H]2CCCCN2)C1 | 87.7% and 96.5% and 90.6% | 107% and 102% and 72.1% | 105% and 107% and 108% | 49.5% and 60.2% and 114% | 108% and 99.4% and 97.4% | 94.5% and 97% and 98.1% | – |
